Experimental data as given in patent US20240148671A1, “METHODS FOR IMPROVING POULTRY HEALTH” (CORNELL UNIVERSITY, priority 2021, published 2024).
Marks after values point to notes of the source that are not given here.

How the values were obtained:
Assay type in all cases: in vivo, Gallus gallus
[1] = Fe and Zn content in the serum and liver samples
Protocol: (§1) The pure resveratrol and pterostilbene were individually diluted in 18 MΩ H2O. The intra-amniotic administration followed the methodology previously described. On the 17th day of embryonic development, the eggs with viable embryos (n=60) were randomly allocated into 6 groups (n=10) with a similar weight frequency distribution. For the intra-amniotic treatment, 1 mL of solution per egg was injected into the amniotic fluid (via candling) with the aid of a 21-gauge needle. After the procedure, the injection sites were sealed with cellophane tape, and the eggs were distributed into six groups: (1) no injection; (2) 18 MΩ H2O; (3) 5% inulin; (4) 5% resveratrol; (5) 5% pterostilbene; and (6) synergistic: 4.75% resveratrol and 0.25% pterostilbene. […] The eggs were equally distributed in each incubator location to reduce possible allocation bias. Upon hatching (21 days), the hatchlings were euthanized by CO2 exposure, and the blood, liver, heart, pectoral muscle, small intestine and cecum were obtained.
The serum (50 μL) and liver (0.5 g) samples were mixed with 3.0 mL of a 60:40 (v/v) solution of nitric acid (HNO3) and perchloric acid (HClO4) and incubated overnight. After this, the samples were heated for 2 hours at 120° C. and added to 0.25 mL of 40 μg/g yttrium (internal standard), and the block temperature was increased to 145° C. for 2 h and then 190° C. for 10 min. At the end of these procedures, the samples were cooled, diluted to a total volume of 20 mL, mixed and transferred into autosampler tubes for analysis (inductively coupled plasma atomic emission spectrometer) (Thermo, Franklin, MA, USA).

[2] = test system: TNF-α; experiment: Gene expression (RT-PCR), TNF-α; details: at hatch; b175, b210: compared with the 5% inulin control group; b192: comparator not stated; p<0.05
Protocol: (§2) The pure resveratrol and pterostilbene were individually diluted in 18 MΩ H2O. The intra-amniotic administration followed the methodology previously described. On the 17th day of embryonic development, the eggs with viable embryos (n=60) were randomly allocated into 6 groups (n=10) with a similar weight frequency distribution. For the intra-amniotic treatment, 1 mL of solution per egg was injected into the amniotic fluid (via candling) with the aid of a 21-gauge needle. […]
(§3) The RNA was isolated as described previously (RNeasy Mini Kit, Qiagen Inc., Valencia, CA, USA), and 30 mg of the duodenal tissue or liver tissue (n =8) was used to extract the total RNA. […] Finally, the RNA was eluted in 50 μL of RNase-free water and quantified by absorbance at 260 and 280 nm.
(§4) RT-PCR was conducted as described. […] The cDNA content was assessed by absorbance at 260 and 280 nm, with an extinction coefficient of 33 (single-stranded DNA). Genomic DNA contamination was evaluated via a real-time RT-PCR assay for the reference gene samples [17,18,30]. […]
(§5) The procedures were performed as previously published. […] The optimal MgCl2 concentration achieved, for each reaction, an amplification plot (lowest cycle product, Cp), the uppermost fluorescence intensity and the steepest amplification slope. […]

[3] = test system: hemoglobin (Hb); experiment: Blood hemoglobin (Hb) after intra-amniotic administration
Protocol: as §1
Blood was collected using micro-hematocrit heparin-coated capillary tubes (Fisher Scientific, Waltham, MA, USA). The hemoglobin (Hb) concentration was assessed spectrophotometrically using the QuantiChrom™ Hb Assay (DIHB-250, BioAssay Systems, Hayward, CA, USA) and according to specific instructions.

[4] = test system: AP (Aminopeptidase); experiment: Gene expression (RT-PCR), AP; details: at hatch; b175: relative to the 18 MΩ M2O and 5% inulin control groups; b192: comparator not stated; p<0.05
Protocol: as §2, §3, §4, §5

[5] = Body weight, cecum weight and cecum:body weight ratio; details: intra-amniotic 1 mL/egg on day 17; at hatch (day 21); mean ± SEM, n=8
Protocol: as §1

[6] = test system: SI (Sucrose isomaltase); experiment: Gene expression (RT-PCR), SI; details: at hatch; b175: compared with the no injection and 5% inulin control groups; b192: comparator not stated; p<0.05
Protocol: as §2, §3, §4, §5

[7] = test system: Liver Ferritin; experiment: Liver ferritin; details: intra-amniotic 1 mL/egg on day 17, at hatch, mean ± SEM, n=5
Protocol: as §1

[8] = test system: AT1R (angiotensin II receptor type I); experiment: Gene expression (RT-PCR), AT1R; details: intestinal and heart gene expression (FIG. 2); b176: compared with the no injection control; b192: comparator not stated; b210: between the experimental groups
Protocol: as §2, §3, §4, §5

[9] = test system: IL-1β; experiment: Gene expression (RT-PCR), IL-1β; details: at hatch; b175, b210: compared with the 5% inulin control group; b192: comparator not stated; p<0.05
Protocol: as §2, §3, §4, §5

[10] = Glycogen in pectoral muscle; details: intra-amniotic 1 mL/egg on day 17, at hatch, mean ± SEM, n=8
Protocol: as §1

[11] = liver, intra-amniotic 1 mL/egg on day 17, at hatch, mean ± SEM, n=8
[12] = serum, intra-amniotic 1 mL/egg on day 17, at hatch, mean ± SEM, n=8

Oc1ccc(C=Cc2cc(O)cc(O)c2)cc1 [5% Resveratrol, Resveratrol]
Liver iron concentration vs inulin positive control ([1]; compared with the inulin positive control): similar
Liver Iron (μg/g) [1, 11]: 46.45 ± 4.71 ^a μg/g
Liver Zinc (μg/g) [1, 11]: 16.72 ± 1.58 ^b μg/g
Serum Iron (μg/g) [1, 12]: 2.42 ± 0.23 ^b μg/g
Serum Zinc (μg/g) [1, 12]: 0.97 ± 0.12 ^bc μg/g
TNF-α gene expression [2]: downregulated
Hb (g/dL) ([3]; intra-amniotic 1 mL/egg on day 17, blood at hatch (day 21), mean ± SEM): 9.71 ± 0.53^a g/dL
Hb concentration, comparison between groups ([3]; synergistic vs the controls and other treatment groups (p<0.05), 5% resveratrol and 5% pterostilbene vs the control groups): no difference
AP relative expression [4]: downregulated
Body Weight Average (g) [5]: 47.1 ± 1.4^a g
Cecum Weight Average (g) [5]: 0.6 ± 0.0^a g
Cecum:Body Weight Ratio [5]: 0.013 ± 0.001^a
SI relative expression [6]: down regulated
Liver Ferritin (A.U.) [7]: 0.839 ± 0.393^bc A.U.
AT1R gene expression [8]: downregulated
IL-1β gene expression [9]: downregulated
Glycogen (mg/g) [10]: 0.019 ± 0.004^a mg/g
